Patent US20220256890A1, “ANIMAL FEED SUPPLEMENT AND ANIMAL FEED COMPOSITION” (MOOTRAL INNOVATIONS LIMITED, priority 2019, published 2022)

Tested on: rumen inoculum
Test: in vitro incubation of test materials with rumen inoculum, methane measured by micro-gas chromatograph
Format: cell-based, dairy cows
Conditions: Example 2, no garlic, 24 hour incubation
Experimental: Rumen inoculum was obtained before the morning feeding from 3 rumen fistulated dairy cows on a diet composed of 50% maize silage and 50% wilted grass silage (on dry matter basis) supplemented with some straw and urea. Additionally, soybean meal and balanced compound feed were administered to fulfil the animals' requirements for milk production. Test materials were incubated in 125-mL flasks containing 25 mL of CO2-saturated bicarbonate/phosphate buffer (containing 3.58 g Na2HPO4.12H2O, 1.55 g KH2PO4, 0.124 g MgCl2.6H2O, 8.74 g NaHCO3 and 1.71 g NH4HCO3 per liter of distilled water) and rumen inoculum, in triplicate per test material (3 biological replicates). A mixture of maize silage (crude protein 65.6 g kg^−1, crude fat 27.9 g kg^−1, crude fibre 145 g kg^−1 and starch 410 g kg DM^−1), grass silage (crude protein 153 g kg^−1, crude fat 28.8 g kg^−1, crude fibre 277 g kg^−1 and sugar 78.5 g kg^−1) and dairy concentrate (crude protein 183 g kg^−1, crude fibre 29 g kg^−1 an sugar 89 g kg^−1) was used as the substrate (30/30/40, DM weight basis, 250 mg flask^−1). The test materials (garlic powder, eugenol, geranyl acetate and coriander oil) were added shortly before the incubation directly into the fluid. All flasks were incubated in a shaking incubator at 39° C. (Edmund Buhler Gmbh, Hechingen, Germany). At the end of the 24 hour incubation, flasks were removed from the incubator and placed in ice water to stop the fermentation. pH, gas pressure and gas composition were measured, and samples were collected for VFA analysis. Different amounts of garlic powder were used providing allicin doses of 0.1 mg, 0.2 mg, 0.4 mg, and 0.8 mg per flask (i.e. 4 mg/l, 8 mg/l, 16 mg/l, and 32 mg/l). A fixed concentration of 500 mg/l (i.e. 12.5 mg/flask) for the other test materials was used. Water was used as a negative control. The amount of methane gas was measured using a micro-gas chromatograph equipped with two gas chromatographic modules and a thermal conductivity detector (3000 micro-GC, Agilent, USA). Ethane (C2H6; 1 mL/flask) was used as internal standard and argon as a carrier gas for both columns. The data obtained with the test materials was normalized to a non-treated control group, i.e. samples receiving the substrate only (negative control). I.e. 100% refers to the value of the negative control. Values below 100% indicate reduction of methane as a result of the additive. Values above 100% indicate an increase in methane production. The synergism between garlic and a component of essential oil was also studied. Synergy was calculated by adding the percentage reduction of methane by garlic alone and eugenol or geranyl acetate alone and then subtracting the percentage reduction of the combination and the component of essential oil. The resulting values were inversed. […] An experiment was conducted to test the dose-dependent effects of the essential oils and the components of the essential oils. The same method and test materials of Example 1 was used in this experiment. Different amounts of garlic powder were used providing allicin doses of 0.1 mg, 0.2 mg, 0.4 mg, and 0.8 mg per flask (i.e. 4 mg/l, 8 mg/l, 16 mg/l, and 32 mg/l). The doses of eugenol, geranyl acetate, coriander oil and bornyl acetate were varied in this experiment whereby 0.25 mg/ml, 0.5 mg/ml, 0.75 mg/ml of test materials was used. Water was used as a negative control. The amount of methane produced for each reaction was measured using the same method as described in Example 1.

[1] = essential oil or component alone 0.25 mg/mL
[2] = essential oil or component alone 0.5 mg/mL
[3] = essential oil or component alone 0.75 mg/mL

Row | SMILES | production of methane [1] [μmol/reaction] | production of methane [2] [μmol/reaction] | production of methane [3] [μmol/reaction]
1 | CC(=O)OC1CC2CCC1(C)C2(C)C (stereo not drawn) [Bornyl acetate] | 422 | 353 | 267
2 | C=CCc1ccc(O)c(OC)c1 [Eugenol] | 388 | 310 | 234
3 | CC(=O)OC/C=C(\C)CCC=C(C)C [Geranyl acetate] | 436 | 327 | 203
